Reference: PubChem BioAssay (NCI)
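Method: 48-hour compound exposure of cells in 96-well plates, five concentrations, linear interpolation of endpoints. GI50 marks 50% less growth. At the TGI there is no net growth.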

Legend:
Experiment in all cases: NCI anticancer screen, dose series, 48 h
M14 melanoma = test system: M14 melanoma
DU-145 prostate = test system: DU-145 prostate
U251 CNS = test system: U251 CNS
SNB-19 CNS = test system: SNB-19 CNS
SW-620 colon = test system: SW-620 colon
786-0 renal = test system: 786-0 renal
IGROV1 ovarian = test system: IGROV1 ovarian
SF-295 CNS = test system: SF-295 CNS
HT29 colon = test system: HT29 colon
SNB-75 CNS = test system: SNB-75 CNS

O=Nc1ccc(O)c(=O)cc1 gave a GI50 (M14 melanoma) of 2520 nM, a TGI (M14 melanoma) of 7.01 µM and a GI50 (DU-145 prostate) of 3.74 µM. The TGI (DU-145 prostate) was 10.8 µM, the GI50 (U251 CNS) was 3.08 µM and the TGI (U251 CNS) was 11.6 µM. The GI50 (SNB-19 CNS) was 13.5 µM, the TGI (SNB-19 CNS) was 27.3 µM and the GI50 (SW-620 colon) was 657 nM. The TGI (SW-620 colon) was 2.35 µM, the GI50 (786-0 renal) was 2180 nM and the TGI (786-0 renal) was 5.52 µM. It also gave a GI50 (IGROV1 ovarian) of 3.77 µM, a TGI (IGROV1 ovarian) of 11.3 µM and a GI50 (SF-295 CNS) of 26.1 µM. The TGI (SF-295 CNS) was 79.2 µM, the GI50 (HT29 colon) was 2450 nM and the TGI (HT29 colon) was 10.7 µM. It also gave a GI50 (SNB-75 CNS) of 3.77 µM and a TGI (SNB-75 CNS) of 17.2 µM.

Molecule COc1ccc2c(c1OC)C[C@@H]1c3c(cc4c(c3-2)OCO4)CCN1C has a TGI (M14 melanoma) of 84.8 µM, a TGI (DU-145 prostate) of over 100 µM and a TGI (U251 CNS) of over 100 µM. For the same molecule, the TGI (SNB-19 CNS) was over 100 µM, the TGI (SW-620 colon) was over 100 µM and the TGI (786-0 renal) was 63.9 µM. It also gave a TGI (IGROV1 ovarian) of 99.1 µM, a TGI (SF-295 CNS) of 31.3 µM and a TGI (HT29 colon) of 41.3 µM. The TGI (SNB-75 CNS) was 52.5 µM.

CCCNC(=S)/N=C/c1c(O)cc(C)oc1=O showed a TGI (M14 melanoma) of over 100 µM, a TGI (DU-145 prostate) of over 100 µM and a TGI (U251 CNS) of over 100 µM. The TGI (SNB-19 CNS) was over 100 µM, the TGI (SW-620 colon) was over 100 µM and the TGI (786-0 renal) was over 100 µM. It also gave a TGI (IGROV1 ovarian) of over 100 µM, a TGI (SF-295 CNS) of over 100 µM and a TGI (HT29 colon) of over 100 µM. For the same molecule, the TGI (SNB-75 CNS) was over 100 µM.

With O=C1CSCc2sccc21 the TGI (M14 melanoma) was over 100 µM, the TGI (DU-145 prostate) was over 100 µM and the TGI (U251 CNS) was over 100 µM. The TGI (SNB-19 CNS) was over 100 µM, the TGI (SW-620 colon) was over 100 µM and the TGI (786-0 renal) was over 100 µM. It also gave a TGI (IGROV1 ovarian) of over 100 µM, a TGI (SF-295 CNS) of over 100 µM and a TGI (HT29 colon) of over 100 µM. It also gave a TGI (SNB-75 CNS) of over 100 µM.

In the case of COC[C@@H](N=C1NC(=O)/C(=C/c2ccc3ncccc3c2)S1)c1ccccc1, the GI50 (M14 melanoma) was 13000 nM, the TGI (M14 melanoma) was over 25 µM and the GI50 (DU-145 prostate) was 12 µM. For the same molecule, the TGI (DU-145 prostate) was over 25 µM, the GI50 (U251 CNS) was 4.32 µM and the TGI (U251 CNS) was over 25 µM. For the same molecule, the GI50 (SNB-19 CNS) was 8.82 µM, the TGI (SNB-19 CNS) was over 25 µM and the GI50 (SW-620 colon) was 8910 nM. The TGI (SW-620 colon) was over 25 µM, the GI50 (786-0 renal) was 10200 nM and the TGI (786-0 renal) was over 25 µM. For the same molecule, the GI50 (IGROV1 ovarian) was 12.9 µM, the TGI (IGROV1 ovarian) was over 25 µM and the GI50 (SF-295 CNS) was 8.71 µM. It also gave a TGI (SF-295 CNS) of over 25 µM, a GI50 (HT29 colon) of 8830 nM and a TGI (HT29 colon) of over 25 µM. For the same molecule, the GI50 (SNB-75 CNS) was 4.83 µM and the TGI (SNB-75 CNS) was over 22 µM.

Molecule CCN1C(=S)N(c2ccccc2)C2NC(=S)N(/N=C/C=C/c3ccccc3OC)C21 (centres undefined) has a GI50 (M14 melanoma) of 304 nM, a TGI (M14 melanoma) of over 100 µM and a GI50 (DU-145 prostate) of 0.356 µM. It also gave a TGI (DU-145 prostate) of 28.5 µM, a GI50 (U251 CNS) of 0.393 µM and a TGI (U251 CNS) of over 100 µM. For the same molecule, the GI50 (SNB-19 CNS) was 0.496 µM, the TGI (SNB-19 CNS) was over 100 µM and the GI50 (SW-620 colon) was 404 nM. For the same molecule, the TGI (SW-620 colon) was over 100 µM, the GI50 (786-0 renal) was 639 nM and the TGI (786-0 renal) was over 100 µM. It also gave a GI50 (IGROV1 ovarian) of 0.606 µM, a TGI (IGROV1 ovarian) of over 100 µM and a GI50 (SF-295 CNS) of 0.263 µM. It also gave a TGI (SF-295 CNS) of over 100 µM, a GI50 (HT29 colon) of 329 nM and a GI50 (SNB-75 CNS) of 0.211 µM. The TGI (SNB-75 CNS) was 4.36 µM.

For O=c1[nH]c2ccccc2c2ccccc12, the GI50 (M14 melanoma) was over 100000 nM, the TGI (M14 melanoma) was over 100 µM and the GI50 (DU-145 prostate) was over 100 µM. It also gave a TGI (DU-145 prostate) of over 100 µM, a GI50 (U251 CNS) of over 100 µM and a TGI (U251 CNS) of over 100 µM. It also gave a GI50 (SNB-19 CNS) of over 100 µM, a TGI (SNB-19 CNS) of over 100 µM and a GI50 (SW-620 colon) of over 100000 nM. It also gave a TGI (SW-620 colon) of over 100 µM, a GI50 (786-0 renal) of over 100000 nM and a TGI (786-0 renal) of over 100 µM. It also gave a GI50 (IGROV1 ovarian) of over 100 µM, a TGI (IGROV1 ovarian) of over 100 µM and a GI50 (SF-295 CNS) of over 100 µM. For the same molecule, the TGI (SF-295 CNS) was over 100 µM, the GI50 (HT29 colon) was over 100000 nM and the TGI (HT29 colon) was over 100 µM. It also gave a GI50 (SNB-75 CNS) of over 100 µM and a TGI (SNB-75 CNS) of over 100 µM.

For COc1ccc(/C=C(/C#N)C(N)=O)c(OC)c1, the TGI (M14 melanoma) was over 100 µM, the TGI (DU-145 prostate) was over 100 µM and the TGI (U251 CNS) was over 100 µM. It also gave a TGI (SNB-19 CNS) of over 100 µM, a TGI (SW-620 colon) of over 100 µM and a TGI (786-0 renal) of over 100 µM. For the same molecule, the TGI (IGROV1 ovarian) was over 100 µM, the TGI (SF-295 CNS) was over 100 µM and the TGI (HT29 colon) was over 100 µM. The TGI (SNB-75 CNS) was over 100 µM.
